Values of other authors, collected in patent publication US20160128340A1, “Pest control formulation composed of Beauveria bassiana, Cold Pressed Neem Oil and Refined Pyrethrum Extract, and methods of making and using same” (priority 2014, published 2016).

Test system: Bemisia tabaci
Details: Bemisia tabaci population collected in a floriculture greenhouse

| Compound | resistance factor at LC50 [fold] |
| --- | --- |
| O=[N+]([O-])NC1=NCCN1Cc1ccc(Cl)nc1 [imidacloprid] | 730 |
| CC1(C)C(C=C(Cl)Cl)C1C(=O)OC(C#N)c1cccc(Oc2ccccc2)c1 (stereo not drawn) [α-cypermethrin] | 80 |
| Cc1c(COC(=O)[C@@H]2[C@H](/C=C(\Cl)C(F)(F)F)C2(C)C)cccc1-c1ccccc1 (racemic) [bifenthrin] | 23 |
| CCN(CC)c1nc(C)cc(OP(=S)(OC)OC)n1 [pirimiphos-methyl] | 18 |
